# Assay results as given in patent US9937162B2, “Methods of treating and preventing vascular instability diseases” (THE UNIVERSITY OF UTAH RESEARCH FOUNDATION, priority 2014, dated 2018).
# Key:
# Ccm2 ecKO mice = test: Chronic treatment of Ccm2 ecKO mice, CCM lesions quantified by postmortem MRI; type: in vivo; details: treated from P5 to 5 months of age, tempol 1 mM in drinking water or cholecalciferol-enhanced chow (+25 IU/g D3)
# Method: Chronic treatment studies of the effects of tempol and cholecalciferol in inducible endothelial-specific Ccm2 knockout mice (Ccm2^f/−; +/Tg(Pdgfb-iCreER^T2), also referred to herein as Ccm2 ecKO mice or endothelial knockout mice, were performed, inter alia, to evaluate the potential of tempol and/or cholecalciferol administration for the treatment of CCM disease (see Chan A C et al., J Clin Invest 121, 1871-1881 (2011) regarding the Ccm2 ecKO mice). 5 days after birth (P5), Ccm2 ecKO mice litters were assigned to a standard chow (HARLAN 2018, 1.5 IU/g D3), a standard chow plus tempol in drinking water (1 mM), or a cholecalciferol-enhanced chow (HARLAN 2018+25 IU/g D3). The chow was provided to the mother of each litter until the mice were weaned at P21. […]
# At 5 months of age, mice were sacrificed by exsanguination (blood was collected for later analysis), and subsequent perfusion with saline and then 4% formaldehyde. […] Lesion area and number were quantified by two blinded reviewers using IMAGEJ and OSIRIX software. […]
# The results of both reviewers were tabulated. […] FIG. 1B depicts a normalized number of CCM lesions as measured by MRI in Ccm2 ecKO mice. […] FIG. 1C is a graph depicting the number of lesions of various sizes as measured by MRI in Ccm2 ecKO mice. […]
# ARF6 = ARF6 activation assay (GTP-ARF6 pulldown, western blot) in siCCM2 HMVEC-D cells; type: cell-based
# Method: (§1) The timing of effects of cholecalciferol on the endothelium was assessed by evaluating the effect of knockdown of CCM2, and subsequent treatment with cholecalciferol, on a panel of signaling pathways associated with endothelial instability. The signaling pathways assessed included: ADP-ribosylation factor 6 (ARF6), cell division control protein 42 homolog (CDC42), transforming protein RhoA (RHOA), phosphorylation of myosin light chain (pMLC), Ras-related C3 botulinum toxin substrate 1 (RAC1), and Ras-related protein R-Ras (RRAS) (see Broman M T et al., Circ Res 98, 73-80 (2006); Broman M T et al., Trends Cardiovasc Med 17, 151-156 (2007); Eliceiri B P et al., Mol Cell 4, 915-924 (1999); Sawada J et al., Cancer Cell 22, 235-249 (2012); Weis S et al., J Cell Biol 167, 223-229 (2004); Wojciak-Stothard B et al., Vascul Pharmacol 39, 187-199 (2002); and Zhu W et al., Nature 492, 252-255 (2012)). […]
# (§2) For RhoA, ARF6, Rac1/cdc42, and R-Ras activation assays, crude total cell lysate were generated and GTP-RhoA, ARF6, Rac1/cdc42, and R-Ras were precipitated with Rhotekin-RBD (EMD MILLIPORE), GGA3-PBD (CELL BIOLABS), PAK-1-PBD (EMD MILLIPORE), and Raf-1 RBD, respectively. […] RhoA, ARF6, Rac1/cdc42, and R-Ras were detected by western blotting with antibodies (RhoA, Rac1, and R-Ras antibodies were from CELL SIGNALING TECHNOLOGY; ARF6 and cad42 antibodies were from EMD MILLIPORE).
# RHOA = test: RhoA activation assay (GTP-RhoA pulldown, western blot) in siCCM2 HMVEC-D cells; type: cell-based; details: siCCM2 HMVEC-D monolayers, 100 nM or 10 μM, 24 hours
# Method: as §1, §2
# pMLC = test: Phosphorylation of myosin light chain (pMLC) in siCCM2 HMVEC-D cells; type: cell-based; details: siCCM2 HMVEC-D monolayers, 100 nM or 10 μM, 60 minutes
# Method: The timing of effects of cholecalciferol on the endothelium was assessed by evaluating the effect of knockdown of CCM2, and subsequent treatment with cholecalciferol, on a panel of signaling pathways associated with endothelial instability. The signaling pathways assessed included: ADP-ribosylation factor 6 (ARF6), cell division control protein 42 homolog (CDC42), transforming protein RhoA (RHOA), phosphorylation of myosin light chain (pMLC), Ras-related C3 botulinum toxin substrate 1 (RAC1), and Ras-related protein R-Ras (RRAS) (see Broman M T et al., Circ Res 98, 73-80 (2006); Broman M T et al., Trends Cardiovasc Med 17, 151-156 (2007); Eliceiri B P et al., Mol Cell 4, 915-924 (1999); Sawada J et al., Cancer Cell 22, 235-249 (2012); Weis S et al., J Cell Biol 167, 223-229 (2004); Wojciak-Stothard B et al., Vascul Pharmacol 39, 187-199 (2002); and Zhu W et al., Nature 492, 252-255 (2012)).
# Wild-type, siCTRL, or siCCM2 treated HMVEC-D cells were incubated with either 100 nM or 10 μM cholecalciferol (TOCRIS BIOSCIENCE), 7-DHC (SIGMA-ALDRICH), or vehicle (0.5% DMSO) for 60 minutes (pMLC, ARF6, RAC, CDC42, RRAS) or 24 hours (RHOA), unless otherwise indicated. After treatment, the cells were washed with ice-cold PBS and lysed in 50 mM Tris pH 7.4, 150 mM NaCl, 10 mM MgCl2, 10% glycerol, 1% NP-40, 1× protease inhibitors, and 1× phosphatase inhibitors.
# CDC42 = test: cdc42 activation assay (pulldown, western blot) in HMVEC-D cells; type: cell-based; details: up to 10 μM, 60 minutes
# Method: as §1, §2
# RAC1 = test: Rac1 activation assay (pulldown, western blot) in HMVEC-D cells; type: cell-based; details: up to 10 μM, 60 minutes
# Method: as §1, §2
# RRAS = test: R-Ras activation assay (pulldown, western blot) in HMVEC-D cells; type: cell-based; details: up to 10 μM, 60 minutes
# Method: as §1, §2
Compound,"number of CCM lesions as measured by MRI, compared to standard chow (Ccm2 ecKO mice)","time to inhibition of ARF6 activation (ARF6; siCCM2 HMVEC-D cells, time course) [min]","CCM2 knockdown-induced activation of ARF6 (ARF6; siCCM2 HMVEC-D monolayers, 100 nM or 10 μM, 60 minutes)",CCM2 knockdown-induced activation of RHOA (RHOA),CCM2 knockdown-induced activation of pMLC (pMLC),basal activation of CDC42 (CDC42),basal activation of RAC1 (RAC1),basal activation of RRAS (RRAS)
C=C1CC[C@H](O)C/C1=C/C=C1\CCC[C@]2(C)[C@@H]([C@H](C)CCCC(C)C)CC[C@@H]12 [cholecalciferol],approximately half as many lesions,≤ 5,inhibited,inhibited,inhibited,nor did treatment of up to 10 μM cholecalciferol appear to basally inhibit activation,nor did treatment of up to 10 μM cholecalciferol appear to basally inhibit activation,nor did treatment of up to 10 μM cholecalciferol appear to basally inhibit activation
"CC1(C)CC(O)CC(C)(C)N1[O] [tempol, 4-hydroxy-2,2,6,6-tetramethylpiperidine 1-oxyl]",approximately half as many lesions,,,,,,,
